# Measurements published in US11021481B2, “Substituted isoindolin-1-ones and 2,3-dihydro-1h-pyrrolo[3,4-c]pyridin-1-ones as HPK1 antagonists” (Nimbus Saturn, Inc., priority 2019, dated 2021).
# Molecular target: HPK1 (Homo sapiens (Human), UniProt Q92918)
# Experiment: HPK1 biochemical enzyme assay (microfluidic mobility shift assay)
# Conditions: 1.5 nM HPK1, ATP 1 mM final, 30 min preincubation, 60 min at RT, Caliper EZ Reader; read-out: HPK1 1000UMATP caliper IC50
# Outline: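 Mobility shift readout of HPK1 activity after a 60 min RT reaction with 1 mM ATP, 1 μM substrate and 5 mM MgCl2. Enzyme/substrate mix was first exposed to compounds for 30 min, using ten-point curves topping at 3 μM final.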
# Chain of HPK1 (Q92918 whole entry): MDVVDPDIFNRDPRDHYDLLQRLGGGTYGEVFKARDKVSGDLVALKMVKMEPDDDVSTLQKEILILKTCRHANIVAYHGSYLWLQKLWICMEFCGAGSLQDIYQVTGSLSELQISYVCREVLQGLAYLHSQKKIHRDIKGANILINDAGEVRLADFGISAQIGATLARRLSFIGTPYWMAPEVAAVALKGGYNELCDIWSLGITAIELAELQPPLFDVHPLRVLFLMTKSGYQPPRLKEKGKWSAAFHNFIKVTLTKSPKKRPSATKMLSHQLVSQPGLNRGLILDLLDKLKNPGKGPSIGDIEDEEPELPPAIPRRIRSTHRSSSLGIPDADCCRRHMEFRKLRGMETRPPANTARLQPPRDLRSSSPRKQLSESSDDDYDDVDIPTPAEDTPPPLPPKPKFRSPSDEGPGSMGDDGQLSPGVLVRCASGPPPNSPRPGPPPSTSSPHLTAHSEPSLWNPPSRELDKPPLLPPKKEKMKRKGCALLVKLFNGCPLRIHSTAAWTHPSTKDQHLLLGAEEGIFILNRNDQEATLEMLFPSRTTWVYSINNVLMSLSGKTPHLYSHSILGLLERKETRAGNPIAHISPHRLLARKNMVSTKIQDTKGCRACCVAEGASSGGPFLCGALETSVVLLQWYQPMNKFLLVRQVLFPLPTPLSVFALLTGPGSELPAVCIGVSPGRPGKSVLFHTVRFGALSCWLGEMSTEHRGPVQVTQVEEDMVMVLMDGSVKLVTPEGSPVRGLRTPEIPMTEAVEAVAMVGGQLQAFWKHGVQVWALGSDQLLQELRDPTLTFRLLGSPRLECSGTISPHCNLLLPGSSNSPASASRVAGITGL
row,Molecule,IC50
1,"O=C1NCc2c(-c3cnc4cnccn34)ccc(Nc3ccc(N4CCC[C@H](O)C4)cn3)c21 [I-169, 7-[[5-[(3S)-3-hydroxy-1-piperipyl]-2-pyridyl]amino]-4-imidazol[1,2-a]pyrazin-3-yl-isoindolin-1-one]",< 100 nM
2,"Cc1cnc2[nH]cc(-c3ccc(Nc4ccc(N5CCN(C)CC5)cn4)c4c3CNC4=O)c2c1 [I-30, 7-[[5-(4-methylpiperazin-1-yl)-2-pyridyl]amino]-4-(5-methyl-1H-pyrrolo[2,3-b]pyridin-3-yl)-isoindolin-1-one]",100 to 1000 nM
3,"O=C1NCc2c(-c3cnc4cccnn34)ccc(Nc3ccc(N4CCNCC4)cn3)c21 [I-82, 4-imidazo[1,2-b]pyridazin-3-yl-7-[(5-piperazin-1-yl-2-pyridyl)amino] isoindolin-1-one]",< 100 nM
4,Cc1ccn2c(-c3ccc(Nc4ccc(N5CCC(O)CC5)cn4)c4c3CNC4=O)cnc2c1F [I-151],< 100 nM
5,"CN1CCN(c2ccc(Nc3ccc(-c4ccnc5c4ccn5C)c4c3C(=O)NC4)nc2)CC1 [I-33, 7-[[5-(4-methylpiperazin-1-yl)-2-pyridyl]amino]-4-(1-methylpyrrolo [2,3-b]pyridin-4-yl)isoindolin-1-one]",< 100 nM
6,O=C1NCc2c(-c3cnc4cc(C(F)(F)F)ccn34)ccc(Nc3ccc(N4CCC(O)CC4)cn3)c21 [I-140],< 100 nM
7,"COCCNc1ccn2c(-c3ccc(Nc4ccc(N5CCC(O)CC5)cn4)c4c3CNC4=O)cnc2c1 [I-205, 7-[[5-(4-hydroxy-1-piperidyl)-2-pyridyl]-amino]-4-[7-(2-methoxyethyl-amino)imidazo [1,2-a]pyridin-3-yl]isoindolin-1-one]",100 to 1000 nM
8,"O=C1NCc2c(-c3cnc4n3CCCC4)ccc(Nc3ccc(N4CCNCC4)cn3)c21 [I-80, 7-[(5-piperazin-1-yl-2-pyridyl)amino]-4-(5,6,7,8-tetrahydro-imidazo[1,2-a]pyridin-3-yl)isoindolin-1-one]",< 100 nM
9,"N#Cc1ccn2c(-c3ccc(Nc4ccc(N5CCC(O)CC5)cn4)c4c3CNC4=O)cnc2c1F [I-188, 8-fluoro-3-[7-[[5-(4-hydroxy-1-piperidyl)-2-pyridyl]amino]-1-oxo-isoindolin-4-yl]imidazo[1,2-a]pyridine-7-carbonitrile]",< 100 nM
10,"Cn1cnc2nccc(-c3ccc(Nc4ccc(N5CCNCC5)cn4)c4c3CNC4=O)c21 [I-114, 4-(1-methylimidazo [4,5-b]pyridin-7-yl)-7-[(5-piperazin-1-yl-2-pyridyl)amino] isoindolin-1-one]",> 1000 nM
11,CCn1ccc2c(-c3ccc(Nc4ccc(N5CCN(C)CC5)cn4)c4c3CNC4=O)ccnc21 [I-49],< 100 nM

# Second part, the molecule after the results:
row,IC50,Molecule
1,< 100 nM,"Cc1ccn2c(-c3ccc(Nc4ccc(CN5CCN(C)CC5)cn4)c4c3CNC4=O)cnc2c1F [I-605, 4-(8-fluoro-7-methylimidazo [1,2-a]pyridin-3-yl)-7-((5-((4-methylpiperazin-1-yl)methyl)pyri-din-2-yl)amino)isoin-dolin-1-one]"
2,< 100 nM,"CN(C)[C@@H]1CCCc2ccc(Nc3ccc(-c4cnc5cc(F)ccn45)c4c3C(=O)NC4)nc21 [I-842, (R)-7-((8-(dimethylam-ino)-5,6,7,8-tetrahydroquin-olin-2-yl)amino)-4-(7-fluoroimidazo [1,2-a]pyridin-3-yl)isoindo1in-1-one]"
3,< 100 nM,"O=C1NCc2c(-c3cnc4cc(F)ccn34)ccc(Nc3cccc(N4CC[C@@H]5CNC[C@@H]54)n3)c21 [I-498, 4-(7-fluoroimidazo [1,2-a]pyridin-3-yl)-7-((6-((3aR,6aR)-hexahydropy-rrolo[3,4-b]pyrrol-1(2H)-yl)pyridin-2-yl)amino)isoin-dolin-1-one]"
4,> 1000 nM,"O=C1NCc2c(-c3cnc4cc(F)ccn34)ccc(Nc3cccc(O[C@H]4CCC[C@H]4O)n3)c21 (stereo in doubt) [I-354, 4-(7-fluoroimidazo [1,2-a]pyridin-3-yl)-7-((6-(((lR,2S)-2-hydroxycyclopentyl)oxy)pyri-din-2-yl)amino)isoin-dolin-1-one]"
5,< 100 nM,"Cn1ccc2c(-c3ncc(Nc4cccc(N5C[C@H](N)CC5=O)n4)c4c3CNC4=O)ccnc21 [I-691, (R)-7-((6-(4-amino-2-oxopyrrolidin-1-yl)pyridin-2-yl)amino)-4-(1-methyl-1H-pyrrolo[2,3-b]pyridin-4-yl)-2,3-dihydro-1H-pyrrolo[3,4-c]pyridin-1-one]"
6,100 to 1000 nM,"CC1COc2c(-c3ccc(Nc4ccc(N5CCN(C)CC5)cn4)c4c3CNC4=O)cnn2C1 (stereo in doubt) [I-259, (R)-4-(6-methyl-6,7-dihydro-5H-pyrazolo[5,1-b][1,3]oxazin-3-yl)-7-((5-(4-methylpiperazin-1-yl)pyridin-2-yl)amino)isoin-dolin-1-one]"
7,100 to 1000 nM,"O=C1NCc2c(-c3cnc4cnccn34)ccc(Nc3ccc(S(=O)(=O)N4CCC4)cn3)c21 [I-307, 7-((5-(azetidin-1-ylsulfonyl)-pyridin-2-yl)amino)-4-(imidazo[1,2-a]pyrazin-3-yl)isoindolin-1-one]"
8,< 100 nM,"O=C1NCc2c(-c3cnc4cc(F)ccn34)ccc(Nc3ccc([C@H]4CCOC4)c(CNCC(F)F)n3)c21 (single isomer, unassigned) [I-739]"
9,< 100 nM,"CN[C@H]1CCN(c2cccc(Nc3cnc(-c4ccnc5c4ccn5C)c4c3C(=O)NC4)n2)C1 [I-245, 7-[[6-[(3S)-3-(methylamino)pyrrolidin-1-yl]-2-pyridyl]amino]-4-(1-methylpyrrolo [2,3-b]pyridin-4-yl)-2,3-dihydropyrrolo [3,4-c]pyridin-1-one]"
10,< 100 nM,"COC1(c2ccc(Nc3ccc(-c4cnc5cc(F)ccn45)c4c3C(=O)NC4)nc2CN(C)C)CC1 [I-823, 7-((6-((dimethylamino)methyl)-5-(1-methoxycyclopropyl)pyridin-2-yl)amino)-4-(7-fluoroimidazo[1,2-a]pyridin-3-yl)isoindolin-1-one]"
11,< 100 nM,"7-[[5-[(2R)-2- (1-hydroxy-1- methylethyl)morpholin- 4-yl]-2- pyridyl]amino]- 4-imidazo[1,2- a]pyrazin-3-yl- isoindolin-1-one [I-486]"
12,< 100 nM,"CC(C)(O)[C@@H]1CCCN(c2ccc(Nc3ccc(-c4cnc5cnccn45)c4c3C(=O)NC4)nc2)C1 [I-311, (R)-7-((5-(3-(2-hydroxypropan-2-yl)piperidin-1-yl)pyridin-2-yl)amino)-4-(imidazo[1,2-a]pyrazin-3-yl)isoindolin-1-one]"
13,< 100 nM,"O=C1NCc2c(-c3cnc4cc(F)ccn34)ccc(Nc3ccc(C4CCOC4)c(CN4CCOCC4)n3)c21 (stereo in doubt) [I-721, (R)-4-(7-fluoroimidazo [1,2-a]pyridin-3-yl)-7-((6-(morpliolinomethyl)-5-(tetrahydrofuran-3-yl)pyridin-2-yl)amino)isoin-dolin-1-one]"
14,< 100 nM,"C[C@H]1COCCN1c1ccc(Nc2ccc(-c3cnc4cc(F)ccn34)c3c2C(=O)NC3)nc1CN(C)C [I-531, 7-[[6-[(dimethylamino)-methyl]-5-[(3S)-3-methylmorpho-lin-4-yl]-2-pyridyl]amino] 4-(7-fluoroimidazo [1,2-a]pyridin-3-yl)isoindolin-1-one]"
15,< 100 nM,"Cn1ccc2c(-c3ccc(Nc4ccc(N5CC[C@@H](O)C5)cn4)c4c3CNC4=O)ccnc21 [I-278, (R)-7-((5-(3-hydroxy-pyrrolidin-1-yl)pyridin-2-yl)amino)-4-(1-methyl-1H-pyrrolo[2,3-b]pyridin-4-yl)isoindolin-1-one]"
